Assay type in all cases: in vivo
One assay deals with Cyperus iria. In words: Preemergence weed control under flooded paddy conditions, CYPIR (Rice Flatsedge). To be noted: flooded paddy; for herbicidal effect rating, CYPIR / CYPIR herbicidal rating: preemergence, rated three to four weeks after treatment; for CYPIR: preemergence weeds, herbicidal effect rating 0-9, three to four weeks after treatment.
The subject of a further assay is Sagittaria pygmaea, L. In words: Preemergence weed control under flooded paddy conditions, SAGPY (Arrowhead (Pygmaea)). The following applies: flooded paddy; for herbicidal effect rating, SAGPY / SAGPY herbicidal rating: preemergence, rated three to four weeks after treatment; for SAGPY: preemergence weeds, herbicidal effect rating 0-9, three to four weeks after treatment.

Assay [1] relates to Cyperus serotinus, Rottb. As to the kind of experiment: Preemergence weed control under flooded paddy conditions, CYPSE (Flatsedge). To be noted: for herbicidal effect rating, CYPSE / CYPSE herbicidal rating: preemergence, rated three to four weeks after treatment; for CYPSE: preemergence weeds, herbicidal effect rating 0-9, three to four weeks after treatment.
Assay [2] deals with Echinochloa oryzoides (Ard.) Fritsch. As to the kind of experiment: Preemergence weed control under flooded paddy conditions, ECHORC (Watergrass (Calif.)). The following applies: flooded paddy; for herbicidal effect rating, ECHORC / ECHORC herbicidal rating: preemergence, rated three to four weeks after treatment; for ECHORC: preemergence weeds, herbicidal effect rating 0-9, three to four weeks after treatment.

The test system of assay [3] is Monochoria vaginalis, Presl. In words: Preemergence weed control under flooded paddy conditions, MOOVA (Monochoria). The following applies: flooded paddy; for herbicidal effect rating, MOOVA / MOOVA herbicidal rating: preemergence, rated three to four weeks after treatment; for MOOVA: preemergence weeds, herbicidal effect rating 0-9, three to four weeks after treatment.

Regarding `COc1ccc(COC(=O)C(C)(C)c2nsc3ccc(-n4c(=O)cc(C(F)(F)F)n(C)c4=O)cc23)cc1` [Example 397, 1,2-Benzisothiazole-3-acetic acid, 5-[3,6-dihydro-3-methyl-2,6-dioxo-4-(trifluoromethyl)-1(2H)-pyrimidinyl]-alpha,alpha-dimethyl-, p-methoxybenzyl ester], the “herbicidal effect rating, CYPIR” value with Cyperus iria (Rate 0.0320 kg/ha) was 6.0; in the assay on Cyperus iria (Rate 0.0620 kg/ha) it was 7.0; in the assay with Cyperus iria (Rate 0.1250 kg/ha), 9.0; with Cyperus iria (Rate 0.2500 kg/ha), 9.0. The “herbicidal effect rating, SAGPY” value in the assay on Sagittaria pygmaea, L. (Rate 0.0320 kg/ha) worked out at 4.0; in the assay with Sagittaria pygmaea, L. (Rate 0.0620 kg/ha) it was 5.0; in the assay on Sagittaria pygmaea, L. (Rate 0.1250 kg/ha), 5.0; with Sagittaria pygmaea, L. (Rate 0.2500 kg/ha), 5.0. For the same molecule, the “herbicidal effect rating, CYPSE” value in assay [1] (Rate 0.0320 kg/ha), in assay [1] (Rate 0.1250 kg/ha) and in assay [1] (Rate 0.2500 kg/ha) was 0.0 each time. The “herbicidal effect rating, ECHORC” value in assay [2] (Rate 0.0320 kg/ha), in assay [2] (Rate 0.0620 kg/ha), in assay [2] (Rate 0.1250 kg/ha) and in assay [2] (Rate 0.2500 kg/ha) was 9.0 in each case. For the same molecule, the “herbicidal effect rating, MOOVA” value in assay [3] (Rate 0.0320 kg/ha), in assay [3] (Rate 0.0620 kg/ha), in assay [3] (Rate 0.1250 kg/ha) and in assay [3] (Rate 0.2500 kg/ha) was 9.0 in each case.
Turning to `Cn1c(C(F)(F)F)cc(=O)n(-c2ccc3snc(COC(=O)c4ccno4)c3c2)c1=O` [Example 475, 2,4(1H,3H)-Pyrimidinedione, 3-[3-(hydroxymethyl)-1,2-benzisothiazol-5-yl]-1-methyl-6-(trifluoromethyl)-, 5-isoxazolecarboxylate (ester)], the CYPIR herbicidal rating in the assay with Cyperus iria (0.0320 kg/ha) came to 4.0; with Cyperus iria (0.0620 kg/ha), 6.0; in the assay with Cyperus iria (0.1250 kg/ha), 9.0; with Cyperus iria (0.2500 kg/ha), 9.0. Further, the SAGPY herbicidal rating is 0.0 with Sagittaria pygmaea, L. (0.0320 kg/ha); 4.0 in the assay on Sagittaria pygmaea, L. (0.0620 kg/ha); 6.0 with Sagittaria pygmaea, L. (0.1250 kg/ha); 7.0 in the assay on Sagittaria pygmaea, L. (0.2500 kg/ha). Besides, the CYPSE herbicidal rating in assay [1] (0.0320 kg/ha) came out at 0.0; in assay [1] (0.1250 kg/ha), 5.0; in assay [1] (0.2500 kg/ha), 7.0. The ECHORC herbicidal rating is 0.0 in assay [2] (0.0320 kg/ha), 0.0 in assay [2] (0.0620 kg/ha), 2.0 in assay [2] (0.1250 kg/ha) and 3.0 in assay [2] (0.2500 kg/ha). Moreover, the MOOVA herbicidal rating in assay [3] (0.0320 kg/ha), in assay [3] (0.0620 kg/ha), in assay [3] (0.1250 kg/ha) and in assay [3] (0.2500 kg/ha) was 9.0 throughout.
As to `COc1ccc(CC(=O)OCc2nsc3ccc(-n4c(=O)cc(C(F)(F)F)n(C)c4=O)cc23)cc1` [Example 450, 2,4(1H,3H)-Pyrimidinedione, 3-[3-(hydroxymethyl)-1,2-benzisothiazol-5-yl]-1-methyl-6-(trifluoromethyl)-, (p-methoxyphenyl)acetate (ester)], the CYPIR was found to be 6.0 in the assay with Cyperus iria (0.0320 kg/ha), 7.0 with Cyperus iria (0.0620 kg/ha), 9.0 in the assay with Cyperus iria (0.1250 kg/ha) and 9.0 in the assay on Cyperus iria (0.2500 kg/ha). Moreover, the SAGPY in the assay on Sagittaria pygmaea, L. (0.0320 kg/ha) was 5.0; in the assay on Sagittaria pygmaea, L. (0.0620 kg/ha), 5.0; with Sagittaria pygmaea, L. (0.1250 kg/ha) it was 6.0; with Sagittaria pygmaea, L. (0.2500 kg/ha) it was 9.0. In assay [1] (0.0320 kg/ha), this molecule returned a CYPSE of 0.0. In addition, the ECHORC in assay [2] (0.0320 kg/ha) amounted to 0.0; in assay [2] (0.0620 kg/ha), 2.0; in assay [2] (0.1250 kg/ha), 6.0; in assay [2] (0.2500 kg/ha), 9.0. Also, the MOOVA is 7.0 in assay [3] (0.0320 kg/ha), 7.0 in assay [3] (0.0620 kg/ha), 9.0 in assay [3] (0.1250 kg/ha) and 9.0 in assay [3] (0.2500 kg/ha).
In the case of `COC(=O)COc1ccc(C)cc1-c1nsc2cc(Cl)c(-n3c(=O)cc(C(F)(F)F)n(C)c3=O)cc12` [Example 443, Acetic acid, {{2-{6-chloro-5-[3,6-dihydro-3-methyl-2,6-dioxo-4-(trifluoromethyl)-1(2H)-pyrimidinyl]-1,2-benzisothiazol-3-yl}-p-tolyl}oxy}-, methyl ester], the CYPIR in the assay with Cyperus iria (0.0320 kg/ha) amounted to 4.0; in the assay on Cyperus iria (0.0620 kg/ha) it was 6.0; in the assay on Cyperus iria (0.1250 kg/ha), 7.0; with Cyperus iria (0.2500 kg/ha) it was 7.0. Moreover, the SAGPY was 3.0 with Sagittaria pygmaea, L. (0.0320 kg/ha); 3.0 with Sagittaria pygmaea, L. (0.0620 kg/ha); 4.0 with Sagittaria pygmaea, L. (0.1250 kg/ha); 5.0 in the assay with Sagittaria pygmaea, L. (0.2500 kg/ha). In addition, the CYPSE in assay [1] (0.0320 kg/ha), in assay [1] (0.0620 kg/ha) and in assay [1] (0.1250 kg/ha) was 0.0 throughout. Further, the ECHORC in assay [2] (0.0320 kg/ha) was 6.0; in assay [2] (0.0620 kg/ha), 5.0; in assay [2] (0.1250 kg/ha), 7.0; in assay [2] (0.2500 kg/ha), 9.0. Besides, the MOOVA in assay [3] (0.0320 kg/ha) stood at 5.0; in assay [3] (0.0620 kg/ha), 6.0; in assay [3] (0.1250 kg/ha), 7.0; in assay [3] (0.2500 kg/ha), 7.0.
For `CCCCS(=O)(=O)OC(C)c1nsc2ccc(-n3c(=O)cc(C(F)(F)F)n(C)c3=O)cc12` (stereo not drawn) [Example 414, 2,4(1H,3H)-Pyrimidinedione, 3-[3-(1-hydroxyethyl)-1,2-benzisothiazol-5-yl]-1-methyl-6-(trifluoromethyl)-, butanesulfonate (ester)], the CYPIR with Cyperus iria (0.0320 kg/ha) was 0.0; with Cyperus iria (0.0620 kg/ha), 2.0; with Cyperus iria (0.1250 kg/ha), 6.0; in the assay on Cyperus iria (0.2500 kg/ha), 9.0. The CYPSE in assay [1] (0.0320 kg/ha) was found to be 0.0; in assay [1] (0.2500 kg/ha), 9.0. Further, the ECHORC in assay [2] (0.0320 kg/ha) worked out at 0.0; in assay [2] (0.0620 kg/ha) it was 0.0; in assay [2] (0.1250 kg/ha) it was 2.0; in assay [2] (0.2500 kg/ha), 7.0. Moreover, the MOOVA in assay [3] (0.0620 kg/ha), in assay [3] (0.1250 kg/ha) and in assay [3] (0.2500 kg/ha) was 7.0 throughout.
Take `Cn1c(C(F)(F)F)cc(=O)n(-c2ccc3snc(C(SCCO)SCCO)c3c2)c1=O` [Example 419, 1,2-Benzisothiazole-3-carboxaldehyde, 5-[3,6-dihydro-3-methyl-2,6-dioxo-4-(trifluoromethyl)-1(2H)-pyrimidinyl]-, 3-[bis(2-hydroxyethyl)dithioacetal]]: the CYPIR with Cyperus iria (0.0620 kg/ha) was 0.0; in the assay with Cyperus iria (0.1250 kg/ha), 3.0; with Cyperus iria (0.2500 kg/ha), 6.0. Also, the CYPSE in assay [1] (0.0620 kg/ha), in assay [1] (0.1250 kg/ha) and in assay [1] (0.2500 kg/ha) was 0.0 throughout. Besides, the ECHORC in assay [2] (0.0620 kg/ha) is given as 0.0; in assay [2] (0.1250 kg/ha), 2.0; in assay [2] (0.2500 kg/ha), 7.0. In addition, the MOOVA is listed as 0.0 in assay [3] (0.0620 kg/ha), 4.0 in assay [3] (0.1250 kg/ha) and 5.0 in assay [3] (0.2500 kg/ha).
`CC(=O)OCCSC(SCCOC(C)=O)c1nsc2ccc(-n3c(=O)cc(C(F)(F)F)n(C)c3=O)cc12` [Example 418, 1,2-Benzisothiazole-3-carboxaldehyde, 5-[3,6-dihydro-3-methyl-2,6-dioxo-4-(trifluoromethyl)-1(2H)-pyrimidinyl]-, 3-[bis(2-hydroxyethyl)dithioacetal], diacetate (diester)]: the CYPIR in the assay on Cyperus iria (0.0620 kg/ha), in the assay with Cyperus iria (0.1250 kg/ha) and in the assay on Cyperus iria (0.2500 kg/ha) was 0.0 in each case. The CYPSE in assay [1] (0.0620 kg/ha) and in assay [1] (0.2500 kg/ha) was 0.0 throughout. Moreover, the ECHORC in assay [2] (0.0620 kg/ha) turned out to be 0.0; in assay [2] (0.1250 kg/ha), 1.0; in assay [2] (0.2500 kg/ha), 3.0. Besides, the MOOVA in assay [3] (0.0620 kg/ha), in assay [3] (0.1250 kg/ha) and in assay [3] (0.2500 kg/ha) was 0.0 in each case.
With `CC(OS(=O)(=O)C(C)C)c1nsc2ccc(-n3c(=O)cc(C(F)(F)F)n(C)c3=O)cc12` (stereo not drawn) [Example 413, 2,4(1H,3H)-Pyrimidinedione, 3-[3-(1-hydroxyethyl)-1,2-benzisothiazol-5-yl]-1-methyl-6-(trifluoromethyl)-, 1-methylethanesulfonate (ester)], the CYPIR in the assay on Cyperus iria (0.0320 kg/ha) was 0.0; in the assay with Cyperus iria (0.0620 kg/ha) it was 2.0; in the assay on Cyperus iria (0.1250 kg/ha), 5.0; with Cyperus iria (0.2500 kg/ha), 7.0. In addition, the CYPSE in assay [1] (0.0320 kg/ha) is on record as 0.0; in assay [1] (0.0620 kg/ha), 3.0; in assay [1] (0.1250 kg/ha), 5.0; in assay [1] (0.2500 kg/ha) it was 9.0. Also, the ECHORC in assay [2] (0.0320 kg/ha) is 0.0; in assay [2] (0.0620 kg/ha), 0.0; in assay [2] (0.1250 kg/ha), 0.0; in assay [2] (0.2500 kg/ha) it was 6.0. The MOOVA in assay [3] (0.0320 kg/ha) was found to be 7.0; in assay [3] (0.0620 kg/ha) it was 9.0; in assay [3] (0.1250 kg/ha), 9.0; in assay [3] (0.2500 kg/ha), 9.0.
